Laboratory results reported in patent US9695155B2, “Herbicidal substituted pyrimidinyloxy benzene compounds” (E. I. DU PONT DE NEMOURS AND COMPANY, priority 2013, dated 2017).

Assays:
Experiment in all cases: Test C preemergence
wheat, winter = assay type: in vivo, Triticum aestivum; conditions: for Wheat plant response rating: preemergence; for Plant response rating, Wheat: Preemergence, scale 0 to 100, 0 no effect, 100 complete control
Outline: (§1)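 Preemergence: seeds sown in a loam soil–sand blend and sprayed with test chemical in a non-phytotoxic solvent mixture containing surfactant. Postemergence: plants at 2 to 18 cm (1- to 4-leaf stage) in peat-based medium, treated with the same formulation. Greenhouse 13 to 15 days, then visual rating 0 (no effect) to 100 (complete control).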

galium = assay type: in vivo, Galium aparine; conditions: for Galium plant response rating: preemergence; for Plant response rating, Galium: Preemergence, scale 0 to 100, 0 no effect, 100 complete control
Outline: as §1

corn = assay type: in vivo, Zea mays; conditions: for Corn plant response rating: preemergence; for Plant response rating, Corn: Preemergence, scale 0 to 100, 0 no effect, 100 complete control
Outline: as §1

large (Lg) crabgrass = assay type: in vivo, Digitaria sanguinalis; conditions: for Crabgrass, Large plant response rating: preemergence; for Plant response rating, Crabgrass, Large: Preemergence, scale 0 to 100, 0 no effect, 100 complete control
Outline: as §1

giant foxtail = assay type: in vivo, Setaria faberii; conditions: for Foxtail, Giant plant response rating: preemergence; for Plant response rating, Foxtail, Giant: Preemergence, scale 0 to 100, 0 no effect, 100 complete control
Outline: as §1

lambsquarters = assay type: in vivo, Chenopodium album; conditions: for Lambsquarters plant response rating: preemergence; for Plant response rating, Lambsquarters: Preemergence, scale 0 to 100, 0 no effect, 100 complete control
Outline: as §1

pigweed = assay type: in vivo, Amaranthus retroflexus; conditions: for Pigweed plant response rating: preemergence; for Plant response rating, Pigweed: Preemergence, scale 0 to 100, 0 no effect, 100 complete control
Outline: as §1

waterhemp = assay type: in vivo, Amaranthus rudis; conditions: for Waterhemp plant response rating: preemergence; for Plant response rating, Waterhemp: Preemergence, scale 0 to 100, 0 no effect, 100 complete control
Outline: as §1

velvetleaf = assay type: in vivo, Abutilon theophrasti; conditions: for Velvetleaf plant response rating: preemergence; for Plant response rating, Velvetleaf: Preemergence, scale 0 to 100, 0 no effect, 100 complete control
Outline: as §1

[1] = 16 g ai/ha, scale 0 to 100 (0 no effect, 100 complete control)
[2] = 31 g ai/ha, scale 0 to 100 (0 no effect, 100 complete control)
[3] = 125 g ai/ha, scale 0 (no effect) to 100 (complete control)
[4] = 62 g ai/ha, scale 0 (no effect) to 100 (complete control)

| SMILES | Wheat plant response rating (wheat, winter; [1]) | Wheat plant response rating (wheat, winter; [3]) | Galium plant response rating (galium; [1]) | Galium plant response rating (galium; [3]) | Corn plant response rating (corn; [1]) | Corn plant response rating (corn; [3]) | Crabgrass, Large plant response rating (large (Lg) crabgrass; [1]) | Crabgrass, Large plant response rating (large (Lg) crabgrass; [3]) | Foxtail, Giant plant response rating (giant foxtail; [1]) | Foxtail, Giant plant response rating (giant foxtail; [3]) | Lambsquarters plant response rating (lambsquarters; [1]) | Lambsquarters plant response rating (lambsquarters; [3]) | Pigweed plant response rating (pigweed; [1]) | Pigweed plant response rating (pigweed; [3]) | Waterhemp plant response rating (waterhemp; [1]) | Waterhemp plant response rating (waterhemp; [3]) | Velvetleaf plant response rating (velvetleaf; [1]) | Velvetleaf plant response rating (velvetleaf; [3]) | Wheat plant response rating (wheat, winter; [4]) | Galium plant response rating (galium; [4]) | further results |
| --- | --- | --- | --- | --- | --- | --- | --- | --- | --- | --- | --- | --- | --- | --- | --- | --- | --- | --- | --- | --- | --- |
| NC(=S)c1cccc(Oc2ncc(Cl)cn2)c1-n1cc(Cl)cn1 [Compound 292] | 0 | 15 | 80 | 100 | 0 | 45 | 100 | 100 | 45 | 100 | 35 | 100 | 100 | 100 | 100 | 100 | 15 | 100 |  |  | Wheat plant response rating (wheat, winter; [2]): 0; Plant response rating, Wheat (wheat, winter; 62 g ai/ha): 10; Galium plant response rating (galium; [2]): 98; Plant response rating, Galium (galium; 62 g ai/ha): 100; Corn plant response rating (corn; [2]): 5; Plant response rating, Corn (corn; 62 g ai/ha): 10; Crabgrass, Large plant response rating (large (Lg) crabgrass; [2]): 100; Plant response rating, Crabgrass, Large (large (Lg) crabgrass; 62 g ai/ha): 100; Foxtail, Giant plant response rating (giant foxtail; [2]): 100; Plant response rating, Foxtail, Giant (giant foxtail; 62 g ai/ha): 100; Lambsquarters plant response rating (lambsquarters; [2]): 80; Plant response rating, Lambsquarters (lambsquarters; 62 g ai/ha): 98; Pigweed plant response rating (pigweed; [2]): 100; Plant response rating, Pigweed (pigweed; 62 g ai/ha): 100; Waterhemp plant response rating (waterhemp; [2]): 100; Plant response rating, Waterhemp (waterhemp; 62 g ai/ha): 100; Velvetleaf plant response rating (velvetleaf; [2]): 35; Plant response rating, Velvetleaf (velvetleaf; 62 g ai/ha): 98 |
| FC(F)c1cccc(Oc2ncc(Cl)cn2)c1-n1cc(C(F)(F)F)cn1 [Compound 170] | 0 | 60 | 95 | 100 | 0 | 40 | 25 | 100 | 80 | 100 | 90 | 100 | 100 | 100 | 100 | 100 | 25 | 100 | 20 | 100 | Plant response rating, Galium (galium; 31 g ai/ha): 98; Corn plant response rating (corn; [4]): 15; Plant response rating, Corn (corn; 31 g ai/ha): 5; Crabgrass, Large plant response rating (large (Lg) crabgrass; [4]): 100; Plant response rating, Crabgrass, Large (large (Lg) crabgrass; 31 g ai/ha): 95; Foxtail, Giant plant response rating (giant foxtail; [4]): 98; Plant response rating, Foxtail, Giant (giant foxtail; 31 g ai/ha): 85; Lambsquarters plant response rating (lambsquarters; [4]): 100; Pigweed plant response rating (pigweed; [4]): 100; Waterhemp plant response rating (waterhemp; [4]): 100; Velvetleaf plant response rating (velvetleaf; [4]): 80 |
| N#Cc1cccc(Oc2ncc(Cl)cn2)c1-n1cc(OC(F)F)cn1 [Compound 97] | 0 | 90 | 85 | 95 | 0 | 80 | 98 | 100 | 60 | 100 | 95 | 98 | 100 | 100 | 100 | 100 | 40 | 100 | 60 | 98 | Plant response rating, Wheat (wheat, winter; 31 g ai/ha): 10; Plant response rating, Galium (galium; 31 g ai/ha): 90; Corn plant response rating (corn; [4]): 45; Plant response rating, Corn (corn; 31 g ai/ha): 5; Crabgrass, Large plant response rating (large (Lg) crabgrass; [4]): 100; Plant response rating, Crabgrass, Large (large (Lg) crabgrass; 31 g ai/ha): 100; Foxtail, Giant plant response rating (giant foxtail; [4]): 100; Plant response rating, Foxtail, Giant (giant foxtail; 31 g ai/ha): 100; Lambsquarters plant response rating (lambsquarters; [4]): 100; Plant response rating, Lambsquarters (lambsquarters; 31 g ai/ha): 98; Pigweed plant response rating (pigweed; [4]): 100; Plant response rating, Pigweed (pigweed; 31 g ai/ha): 100; Waterhemp plant response rating (waterhemp; [4]): 100; Plant response rating, Waterhemp (waterhemp; 31 g ai/ha): 100; Velvetleaf plant response rating (velvetleaf; [4]): 100; Plant response rating, Velvetleaf (velvetleaf; 31 g ai/ha): 95 |
